Where “and” joins values, the source holds several entries; their conditions need not be identical. Equal values may be shown once. Toxic doses and inconclusive results are not listed.
Tested on: L1210 leukemia ip in BDF1 mice, survival T/C
Assay: NCI In Vivo Anticancer Drug Screen. Data for tumor model L1210 Leukemia (intraperitoneal) in B6D2F1 (BDF1) mice
Conditions: endpoint: mean survival time, higher = longer survival
Summary of the method: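 Antitumor effect is assessed in tumor-bearing animals. Survival in the compound arm is compared with a vehicle-dosed control arm and expressed as their quotient.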

[1] = dose: 100.0 mg/kg/injection, schedule: Q04DX003 (ip), vehicle: saline
[2] = dose: 200.0 mg/kg/injection, schedule: Q04DX003 (ip), vehicle: saline
[3] = dose: 400.0 mg/kg/injection, schedule: Q04DX003 (ip), vehicle: saline
[4] = dose: 50.0 mg/kg/injection, schedule: Q04DX002 (ip), vehicle: Klucel (hydroxypropylcellulose) (HPC)
[5] = dose: 100.0 mg/kg/injection, schedule: Q04DX002 (ip), vehicle: Klucel (hydroxypropylcellulose) (HPC)
[6] = dose: 100.0 mg/kg/injection, schedule: Q04DX003 (ip), vehicle: Klucel (hydroxypropylcellulose) (HPC)
[7] = dose: 5.0 mg/kg/injection, schedule: Q01DX009 (ip), vehicle: Klucel (hydroxypropylcellulose) (HPC)
[8] = dose: 100.0 mg/kg/injection, schedule: Q01DX001 (ip), vehicle: carboxymethylcellulose (CMC)
[9] = dose: 200.0 mg/kg/injection, schedule: Q01DX001 (ip), vehicle: carboxymethylcellulose (CMC)
[10] = dose: 400.0 mg/kg/injection, schedule: Q01DX001 (ip), vehicle: carboxymethylcellulose (CMC)
[11] = dose: 200.0 mg/kg/injection, schedule: Q04DX002 (ip), vehicle: Klucel (hydroxypropylcellulose) (HPC)
[12] = dose: 100.0 mg/kg/injection, schedule: Q04DX003 (ip), vehicle: saline with Tween-80
[13] = dose: 200.0 mg/kg/injection, schedule: Q04DX003 (ip), vehicle: saline with Tween-80
[14] = dose: 400.0 mg/kg/injection, schedule: Q04DX003 (ip), vehicle: saline with Tween-80
[15] = dose: 100.0 mg/kg/injection, schedule: Q01DX009 (ip), vehicle: saline
[16] = dose: 200.0 mg/kg/injection, schedule: Q01DX009 (ip), vehicle: saline
[17] = dose: 100.0 mg/kg/injection, schedule: Q01DX001 (ip), vehicle: saline

CCCC(=O)NNC(=O)CCC
T/C (dose: 100.0 mg/kg/injection, schedule: Q04DX003 (ip), vehicle: gum acacia): 106 % of control | T/C (dose: 200.0 mg/kg/injection, schedule: Q04DX003 (ip), vehicle: gum acacia): 107 % of control | T/C (dose: 400.0 mg/kg/injection, schedule: Q04DX003 (ip), vehicle: gum acacia): 120 % of control

CC(C)C(O)(C(=O)NN)C(=O)NN
T/C (dose: 100.0 mg/kg/injection, schedule: Q01DX009 (ip), vehicle: Klucel (hydroxypropylcellulose) (HPC)): 100 % of control | T/C [1]: 105 % of control | T/C (dose: 200.0 mg/kg/injection, schedule: Q01DX009 (ip), vehicle: Klucel (hydroxypropylcellulose) (HPC)): 90 % of control | T/C [2]: 96 % of control | T/C (dose: 400.0 mg/kg/injection, schedule: Q01DX009 (ip), vehicle: Klucel (hydroxypropylcellulose) (HPC)): 93 % of control | T/C [3]: 103 % of control

CC(=O)NC(N)=S
T/C (dose: 25.0 mg/kg/injection, schedule: Q04DX002 (ip), vehicle: Klucel (hydroxypropylcellulose) (HPC)): 108 % of control | T/C [4]: 108 % of control | T/C (dose: 50.0 mg/kg/injection, schedule: Q04DX003 (ip), vehicle: Klucel (hydroxypropylcellulose) (HPC)): 97 % of control | T/C [5]: 108 % of control | T/C [6]: 103 % of control

O=C1C=CC(=O)N1c1ccc(O)cc1
T/C (dose: 1.25 mg/kg/injection, schedule: Q01DX009 (ip), vehicle: Klucel (hydroxypropylcellulose) (HPC)): 105 % of control | T/C (dose: 2.5 mg/kg/injection, schedule: Q01DX009 (ip), vehicle: Klucel (hydroxypropylcellulose) (HPC)): 107 % of control | T/C (dose: 2.5 mg/kg/injection, schedule: Q04DX003 (ip), vehicle: Klucel (hydroxypropylcellulose) (HPC)): 96 % of control | T/C [7]: 102 % of control | T/C (dose: 5.0 mg/kg/injection, schedule: Q04DX003 (ip), vehicle: Klucel (hydroxypropylcellulose) (HPC)): 95 % of control

CSC1c2ccccc2-c2ccccc21
T/C (dose: 44.0 mg/kg/injection, schedule: Q01DX001 (ip), vehicle: carboxymethylcellulose (CMC)): 100 % of control | T/C (dose: 44.0 mg/kg/injection, schedule: Q01DX001 (ip), vehicle: other): 105 % of control | T/C (dose: 66.0 mg/kg/injection, schedule: Q01DX001 (ip), vehicle: carboxymethylcellulose (CMC)): 94 % of control and 105 % of control | T/C (dose: 66.0 mg/kg/injection, schedule: Q01DX001 (ip), vehicle: other): 97 % of control | T/C [8]: 106 % of control and 111 % of control | T/C (dose: 100.0 mg/kg/injection, schedule: Q01DX001 (ip), vehicle: other): 100 % of control | T/C (dose: 150.0 mg/kg/injection, schedule: Q01DX001 (ip), vehicle: carboxymethylcellulose (CMC)): 95 % of control and 100 % of control | T/C (dose: 150.0 mg/kg/injection, schedule: Q01DX001 (ip), vehicle: other): 97 % of control | T/C [9]: 104 % of control | T/C [10]: 107 % of control

O=S(=O)(F)c1cc(Cl)ccc1O
T/C [5]: 115 % of control | T/C [11]: 115 % of control | T/C (dose: 400.0 mg/kg/injection, schedule: Q04DX002 (ip), vehicle: Klucel (hydroxypropylcellulose) (HPC)): 105 % of control

CC(=O)N(Cc1cccc([N+](=O)[O-])c1)c1ccc(C(=O)O)cc1
T/C (dose: 100.0 mg/kg/injection, schedule: Q01DX001 (ip), vehicle: saline with Tween-80): 98 % of control | T/C (dose: 200.0 mg/kg/injection, schedule: Q01DX001 (ip), vehicle: saline with Tween-80): 119 % of control | T/C (dose: 400.0 mg/kg/injection, schedule: Q01DX001 (ip), vehicle: saline with Tween-80): 93 % of control

OC1CCCC/C1=C/C=C/c1ccccc1 (centres undefined)
T/C [12]: 89 % of control and 97 % of control | T/C [13]: 92 % of control | T/C [14]: 90 % of control and 94 % of control

CN(C)c1ccc(CN2CCCN(Cc3ccc(N(C)C)cc3)C2c2ccc(N(CCCl)CCCl)cc2)cc1
T/C [6]: 102 % of control | T/C (dose: 200.0 mg/kg/injection, schedule: Q04DX003 (ip), vehicle: Klucel (hydroxypropylcellulose) (HPC)): 104 % of control | T/C (dose: 400.0 mg/kg/injection, schedule: Q04DX003 (ip), vehicle: Klucel (hydroxypropylcellulose) (HPC)): 100 % of control

CN(CCO)C(=O)/C=C/c1ccc(O)cc1
T/C (dose: 50.0 mg/kg/injection, schedule: Q01DX009 (ip), vehicle: saline): 95 % of control | T/C [15]: 95 % of control | T/C [16]: 101 % of control

CN1C2CCC1CC(NCCN1CC1)C2 (centres undefined)
T/C [17]: 107 % of control

C#CC(O)(c1ccccc1)c1ccc(N(C)C)cc1 (centres undefined)
T/C [12]: 98 % of control | T/C [13]: 100 % of control | T/C [14]: 89 % of control

CCOC(=O)Nc1cc2c(c(N)n1)N=C(CN(C)c1ccccc1)CN2
T/C [7]: 101 % of control | T/C (dose: 6.25 mg/kg/injection, schedule: Q01DX009 (ip), vehicle: Klucel (hydroxypropylcellulose) (HPC)): 116 % of control | T/C (dose: 12.5 mg/kg/injection, schedule: Q01DX009 (ip), vehicle: Klucel (hydroxypropylcellulose) (HPC)): 118 % of control | T/C (dose: 15.0 mg/kg/injection, schedule: Q01DX009 (ip), vehicle: Klucel (hydroxypropylcellulose) (HPC)): 98 % of control | T/C (dose: 25.0 mg/kg/injection, schedule: Q01DX009 (ip), vehicle: Klucel (hydroxypropylcellulose) (HPC)): 120 % of control | T/C [4]: 196 % of control | T/C [5]: 183 % of control | T/C [11]: 96 % of control

CC(=O)c1ccc(C(C)(C)C)cc1
T/C [8]: 105 % of control | T/C [9]: 100 % of control | T/C [10]: 100 % of control

COC(CN(C)CC(OC)OC)OC
T/C [15]: 107 % of control | T/C [1]: 97 % of control | T/C [16]: 96 % of control | T/C [2]: 112 % of control | T/C (dose: 400.0 mg/kg/injection, schedule: Q01DX009 (ip), vehicle: saline): 98 % of control | T/C [3]: 105 % of control

CC1O/C(=N\O)C(C)O1 (centres undefined)
T/C (dose: 100.0 mg/kg/injection, schedule: Q01DX009 (ip), vehicle: carboxymethylcellulose (CMC)): 95 % of control and 97 % of control | T/C (dose: 100.0 mg/kg/injection, schedule: Q04DX002 (ip), vehicle: carboxymethylcellulose (CMC)): 106 % of control and 115 % of control | T/C (dose: 100.0 mg/kg/injection, schedule: Q04DX003 (ip), vehicle: carboxymethylcellulose (CMC)): 93 % of control | T/C (dose: 200.0 mg/kg/injection, schedule: Q01DX009 (ip), vehicle: carboxymethylcellulose (CMC)): 93 % of control and 95 % of control | T/C (dose: 200.0 mg/kg/injection, schedule: Q04DX002 (ip), vehicle: carboxymethylcellulose (CMC)): 97 % of control and 102 % of control | T/C (dose: 200.0 mg/kg/injection, schedule: Q04DX003 (ip), vehicle: carboxymethylcellulose (CMC)): 101 % of control | T/C (dose: 400.0 mg/kg/injection, schedule: Q01DX009 (ip), vehicle: carboxymethylcellulose (CMC)): 93 % of control and 105 % of control | T/C (dose: 400.0 mg/kg/injection, schedule: Q04DX002 (ip), vehicle: carboxymethylcellulose (CMC)): 95 % of control | T/C (dose: 400.0 mg/kg/injection, schedule: Q04DX003 (ip), vehicle: carboxymethylcellulose (CMC)): 98 % of control

C=CCOc1cccc(C(C)(C)C)c1
T/C (dose: 75.0 mg/kg/injection, schedule: Q04DX003 (ip), vehicle: saline with Tween-80): 103 % of control | T/C (dose: 150.0 mg/kg/injection, schedule: Q04DX003 (ip), vehicle: saline with Tween-80): 101 % of control | T/C (dose: 300.0 mg/kg/injection, schedule: Q04DX003 (ip), vehicle: saline with Tween-80): 92 % of control

CC(=O)OC1c2ccccc2-c2ccc([N+](=O)[O-])cc21 (centres undefined)
T/C [12]: 93 % of control and 100 % of control | T/C [13]: 100 % of control and 102 % of control | T/C [14]: 96 % of control and 98 % of control

O=C1/C=C2/C=CC=CN2C(=O)/C=C2/C=CC=CN12
T/C (dose: 50.0 mg/kg/injection, schedule: Q01DX001 (ip), vehicle: saline): 104 % of control | T/C [17]: 101 % of control | T/C (dose: 200.0 mg/kg/injection, schedule: Q01DX001 (ip), vehicle: saline): 104 % of control | T/C (dose: 400.0 mg/kg/injection, schedule: Q01DX001 (ip), vehicle: saline): 97 % of control
